Test results: paper PMC9102502, “The Influence of Selected Antipsychotic Drugs on Biochemical Aspects of Alzheimer’s Disease” (International Journal of Molecular Sciences, 2022)
“And” between values parts separate entries of the source, which are not always exact repeats. Equal entries are not always repeated.

Assays:
[1] = biological target: T1, human erythrocyte acetylcholinesterase (Homo sapiens, UniProt P22303); experiment: AChE inhibition, modified Ellman's method; assay type: biochemical
T1 construct: solution of hemolyzed erythrocytes diluted 400-fold; from tissue; host or cells: hemolyzed erythrocytes from blood of healthy human donors
T1 sequence (P22303 32-617 isoform P22303-2 limits assumed): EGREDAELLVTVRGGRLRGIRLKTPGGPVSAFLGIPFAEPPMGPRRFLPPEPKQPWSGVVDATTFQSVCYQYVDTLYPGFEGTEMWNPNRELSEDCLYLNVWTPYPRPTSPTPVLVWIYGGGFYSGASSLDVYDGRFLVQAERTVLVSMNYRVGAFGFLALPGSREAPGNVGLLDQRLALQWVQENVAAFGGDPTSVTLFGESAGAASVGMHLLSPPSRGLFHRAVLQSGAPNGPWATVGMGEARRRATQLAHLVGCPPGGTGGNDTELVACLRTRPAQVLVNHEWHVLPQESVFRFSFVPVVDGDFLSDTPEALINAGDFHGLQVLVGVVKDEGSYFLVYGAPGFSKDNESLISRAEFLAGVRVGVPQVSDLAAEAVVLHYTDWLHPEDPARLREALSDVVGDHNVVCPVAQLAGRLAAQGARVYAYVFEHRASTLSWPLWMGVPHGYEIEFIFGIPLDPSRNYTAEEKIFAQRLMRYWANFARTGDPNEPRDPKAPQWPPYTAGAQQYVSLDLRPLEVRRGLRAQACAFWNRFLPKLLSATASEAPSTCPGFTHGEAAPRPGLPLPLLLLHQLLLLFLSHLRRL

[2] = biological target: T2, human plasma butyrylcholinesterase (Homo sapiens, UniProt P06276); experiment: BuChE inhibition, modified Ellman's method; assay type: biochemical; details: experimental data; mean ± SD, n = 6–9; read-out: IC50 BuChE
T2 construct: The solution of plasma 200-fold diluted with 0.9% NaCl; from tissue; host or cells: citrated plasma from blood of healthy human donors
T2 sequence (P06276 29-602): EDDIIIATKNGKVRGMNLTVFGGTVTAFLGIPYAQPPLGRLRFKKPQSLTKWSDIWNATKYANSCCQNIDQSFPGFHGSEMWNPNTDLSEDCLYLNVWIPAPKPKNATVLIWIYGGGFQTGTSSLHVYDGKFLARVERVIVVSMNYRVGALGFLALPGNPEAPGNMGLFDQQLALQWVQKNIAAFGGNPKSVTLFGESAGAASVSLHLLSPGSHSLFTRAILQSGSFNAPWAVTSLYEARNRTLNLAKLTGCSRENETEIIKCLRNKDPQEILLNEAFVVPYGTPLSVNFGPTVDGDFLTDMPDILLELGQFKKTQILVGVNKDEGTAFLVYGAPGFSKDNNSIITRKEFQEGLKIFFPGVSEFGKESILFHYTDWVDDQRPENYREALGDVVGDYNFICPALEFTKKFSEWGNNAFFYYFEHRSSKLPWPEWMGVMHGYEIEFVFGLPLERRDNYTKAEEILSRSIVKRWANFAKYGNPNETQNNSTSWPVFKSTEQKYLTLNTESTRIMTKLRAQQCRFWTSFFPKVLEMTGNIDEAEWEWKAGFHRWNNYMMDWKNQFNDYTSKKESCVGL

[3] = biological target: T3, recombinant human β-amyloid (1–42) (Homo sapiens, UniProt P05067); experiment: Beta-amyloid aggregation, Thioflavin T fluorescence; assay type: biochemical; details: 24 and 48 h; both tested concentrations
T3 construct: recombinant human β-amyloid (1–42; ultrapure); purchased Sigma-Aldrich (St. Louis, MO, USA)
T3 sequence (P05067 672-713 limits assumed): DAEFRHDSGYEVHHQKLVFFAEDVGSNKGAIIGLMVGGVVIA
Outline: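 Aβ42 (DMSO stock, pre-warmed 15 min at 37 °C) at 20 μmol/L final incubated with antipsychotics at TPC and 1/2 × TPC, with 5 µmol/L ThT added. Fluorescence (Ex/Em 440/484 nm, room temperature) read at 10, 30, 60, 90 min, 24 and 48 h; peptide-only control set as 100% aggregation.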

human erythrocytes = experiment: Methemoglobin formation in RBC with AAPH; assay type: cell-based; details: 5 h, AAPH control 61.9%
Procedure: The blood samples were centrifuged (3000 rpm, 10 min, 20 °C, Micro 22 R centrifuge, Hettich Zentrifugen, Tuttlingen, Germany) to separate erythrocytes from the plasma and washed three times with 0.9% saline (NaCl). […] The erythrocytes were suspended in 0.9% saline. As control of basal hemolysis, erythrocytes were incubated with 0.9% NaCl. For total hemolysis control erythrocytes were incubated with 2.0% v/v Triton X-100. Incubation with Triton X-100 and K4[Fe(CN)6] (at concentration 50 g/L) was performed to control methemoglobin (MetHb) formation. Moreover, an antioxidant control containing ascorbic acid (AA) at a concentration of 10 µg/mL was prepared, while AAPH at a concentration of 50 mmol/L was an oxidizing agent. Antipsychotics at concentrations equaling their maximum therapeutic plasma concentrations (TPCmax), as well as 5-fold higher (5 × TPCmax) and 5-fold lower than TPCmax (1/5 × TPCmax), and the oxidizing agent AAPH at a concentration of 50 mmol/L, were added to 2% RBC suspension. Controls and tested samples were incubated at 37 °C. […] For each measurement, 0.5 mL samples were taken from incubated Eppendorf tubes and centrifuged (3000 rpm, 10 min). […] The percentage of hemolysis was calculated with the following formula:Hemolysis (%) = (Asample/Atotal hemolysis) × 100%(1) where Asample—absorbance of the test sample; Atotal hemolysis—the absorbance of the reference sample with 2% Triton X solution, corresponding to complete hemolysis.

BuChE [4] = biological target: T4, BuChE (Homo sapiens, UniProt P06276); experiment: Synergism of antipsychotics with donepezil/rivastigmine (binary mixtures), BuChE; details: ComboSyn;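 further: combination index derived by median-effect analysis of combined drug effects on the cholinesterase, with values below 1 meaning synergism, exactly 1 additivity and above 1 antagonism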
T4 sequence (P06276 29-602): as the sequence (P06276 29-602) above
Text: In turn, the concentrations of antipsychotics were constant in every measurement, and were chosen on the basis of estimated therapeutic plasma concentrations.
Automatic simulation of synergism and antagonism at all doses or effect levels is possible by computer software, based on algorithms. Calculation of the combination index (CI) and isobologram analyses enable to quantitatively determine drug interactions, where CI < 1, =1 and >1 indicate synergism, additive effect and antagonism, respectively. […] The software also allowed us to display the dose–effect curve, the median–effect plot and the dose-reduction index (DRI) plot [36].

BuChE [5] = biological target: T4, BuChE; experiment: Kinetic parameters of enzymatic reaction (Hanes–Woolf), BuChE; assay type: biochemical; parameters: The solution of plasma 200-fold diluted with 0.9% NaCl; from tissue; host or cells: citrated plasma from blood of healthy human donors
Procedure: Kinetic parameters were obtained on the basis of three individual experiments carried out on different biological materials. For this purpose, various concentrations of substrates (ATC and BTC) were used in experiments. The type of inhibition and kinetic parameters of enzymatic reactions were obtained by linear regression using the Hanes–Woolf equations.
AChE SI (selectivity index) was calculated by using the following formula: SI = IC50 of BuChE/IC50 of AChE. However, BuChE SI was defined as IC50 of AChE/IC50 of BuChE. Maximal velocity (Vmax) and the Michaelis constant (Km) were calculated with the use of linear regression—according to the Hanes–Woolf plot.

## OCCOCCN1CCN(C2=Nc3ccccc3Sc3ccccc32)CC1 [Quetiapine, quetiapine]
[1]; over 4000 µg/L (two ends of the printed span), control 0.264 ± 0.014 A/min
  AChE reaction velocity: 0.257 ± 0.016 A/min and 0.241 ± 0.013 A/min
[1]; theoretical values calculated on the basis of extrapolated plots
  IC50: > 100 µM
[2]
  IC50: 6.08 ± 1.63 µM
[3]
  effect on Aβ aggregation after a longer incubation time: substantially inhibit
Human erythrocytes; 80 μg/L
  methemoglobin formation with AAPH: 17.1%
Human erythrocytes; 400 μg/L
  methemoglobin formation with AAPH: 18.8%
BuChE [4]; donepezil 2 μmol/L + antipsychotic at TPCmax
  CI (combination index), BuChE: 0.64
BuChE [4]; donepezil 5 μmol/L + antipsychotic at TPCmax
  CI (combination index), BuChE: 0.64
BuChE [4]; donepezil 10 μmol/L + antipsychotic at TPCmax
  CI (combination index), BuChE: 0.71
BuChE [4]; donepezil 20 μmol/L + antipsychotic at TPCmax
  CI (combination index), BuChE: 0.75
BuChE [4]; donepezil 50 μmol/L + antipsychotic at TPCmax
  CI (combination index), BuChE: 0.85
BuChE [4]; rivastigmine 0.05 μmol/L + antipsychotic at TPCmax
  CI (combination index), BuChE: 2.24
BuChE [4]; rivastigmine 0.1 μmol/L + antipsychotic at TPCmax
  CI (combination index), BuChE: 1.42
BuChE [5]; compound at its IC50
  Vmax(i) BuChE: 0.138 ± 0.058 A/min
BuChE [5]; compound at ½ IC50
  Vmax(i) BuChE: 0.239 ± 0.026 A/min
BuChE [5]; from Km(i), Vmax(i) vs Km, Vmax, mixed inhibition
  type of inhibition of BuChE: same type of inhibition
